The target of data set [1] is T1, Cholinesterase (Homo sapiens, UniProt P06276).
Description: Inhibition of recombinant human BChE by Ellman method
Data set [2] has as its target T2, Acetylcholinesterase (Mus musculus) (UniProt P21836).
T2 sequence (whole entry): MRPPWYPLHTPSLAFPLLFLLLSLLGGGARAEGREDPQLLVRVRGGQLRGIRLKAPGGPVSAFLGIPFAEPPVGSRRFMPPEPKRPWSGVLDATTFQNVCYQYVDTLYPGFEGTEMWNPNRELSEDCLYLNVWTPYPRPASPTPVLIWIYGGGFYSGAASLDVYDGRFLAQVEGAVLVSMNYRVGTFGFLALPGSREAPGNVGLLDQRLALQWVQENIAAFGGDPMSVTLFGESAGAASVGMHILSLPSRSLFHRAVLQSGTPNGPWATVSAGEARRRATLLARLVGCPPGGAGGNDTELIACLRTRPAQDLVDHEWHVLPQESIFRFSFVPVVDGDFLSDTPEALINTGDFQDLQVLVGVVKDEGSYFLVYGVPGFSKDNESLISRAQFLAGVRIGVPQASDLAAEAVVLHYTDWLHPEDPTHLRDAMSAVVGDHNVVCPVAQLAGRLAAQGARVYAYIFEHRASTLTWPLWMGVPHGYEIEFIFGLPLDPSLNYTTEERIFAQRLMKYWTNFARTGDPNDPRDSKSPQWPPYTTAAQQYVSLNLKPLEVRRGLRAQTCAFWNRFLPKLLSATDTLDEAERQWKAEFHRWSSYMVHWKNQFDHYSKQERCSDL
The data set can be described thus: Inhibition of recombinant mouse AChE assessed as residual activity at 10 uM by Ellman method.

For data set [3], the target named is Cholinesterase (Mus musculus) (UniProt Q03311). Briefly: Inhibition of recombinant mouse BChE at 10 uM by Ellman method.
Data set [4] deals with T1, Cholinesterase. Briefly: Inhibition of recombinant human BChE at 10 uM by Ellman method. (Ellman's reagent forms a yellow product with free thiols.)
The next data set concerns the target T3, Acetylcholinesterase (Mus musculus, UniProt P21836).
T3 sequence (P21836 whole entry): T2 sequence (whole entry)
Briefly: Inhibition of recombinant mouse AChE by Ellman method. The settings on record: for pIC50: read-out: IC50.

Data set [5] has as its target T1, Cholinesterase. The data set can be described thus: Inhibition of recombinant human BChE at 50 nM by stopped flow apparatus method.
Data set [6] in a line: Cytotoxicity against human SH-SY5Y cells assessed as reduction in cell viability at 10 uM after 48 hrs by MTS assay. The class given is cell-based. (Formazan colour is commonly taken as a measure of viable cells.)
Data set [7] concerns SH-SY5Y. The data set can be described thus: Neuroprotective activity in human SH-SY5Y cells assessed as inhibition of amyloid beta(1-42)-induced neurotoxicity at 0.1 to 10 uM incubated for 48 hrs by LDH release assay. The format is functional, cell-based. A general note: Release of lactate dehydrogenase indicates damage to the cell membrane.
The test system of data set [8] is SH-SY5Y. Briefly: Neuroprotective activity in human SH-SY5Y cells assessed as inhibition of amyloid beta(1-42)-induced neurotoxicity at 0.1 to 10 uM incubated for 48 hrs by MTS assay. The format is functional, cell-based.

pIC50, pKi: −log10 of the molar value. Where only a bound is given, the exact number is not on record here.

Broadly, the pIC50 is −log10 of the IC50, conventionally taken in molar units. What is called inhibition is how much of the control response was suppressed. What is called pKi is the negative decadic logarithm of the Ki, by convention in mol/L.

T1 sequence (P06276 whole entry): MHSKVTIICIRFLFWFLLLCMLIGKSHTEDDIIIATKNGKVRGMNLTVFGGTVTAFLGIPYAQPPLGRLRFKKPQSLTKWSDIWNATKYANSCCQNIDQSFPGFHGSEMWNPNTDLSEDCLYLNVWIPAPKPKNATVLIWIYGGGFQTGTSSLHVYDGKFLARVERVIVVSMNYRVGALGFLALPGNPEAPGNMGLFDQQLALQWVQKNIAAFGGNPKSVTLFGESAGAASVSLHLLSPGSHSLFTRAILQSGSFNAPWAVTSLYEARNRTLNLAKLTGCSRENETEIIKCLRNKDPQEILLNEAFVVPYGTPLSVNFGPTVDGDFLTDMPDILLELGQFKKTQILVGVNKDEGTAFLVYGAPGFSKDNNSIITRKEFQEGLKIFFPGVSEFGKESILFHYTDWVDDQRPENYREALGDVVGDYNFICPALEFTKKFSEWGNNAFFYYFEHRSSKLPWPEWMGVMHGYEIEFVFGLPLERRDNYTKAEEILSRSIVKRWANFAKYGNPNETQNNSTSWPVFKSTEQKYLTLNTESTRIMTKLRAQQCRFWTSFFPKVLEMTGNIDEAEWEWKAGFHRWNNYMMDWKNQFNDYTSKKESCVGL
Cholinesterase (Mus musculus), sequence (Q03311 whole entry): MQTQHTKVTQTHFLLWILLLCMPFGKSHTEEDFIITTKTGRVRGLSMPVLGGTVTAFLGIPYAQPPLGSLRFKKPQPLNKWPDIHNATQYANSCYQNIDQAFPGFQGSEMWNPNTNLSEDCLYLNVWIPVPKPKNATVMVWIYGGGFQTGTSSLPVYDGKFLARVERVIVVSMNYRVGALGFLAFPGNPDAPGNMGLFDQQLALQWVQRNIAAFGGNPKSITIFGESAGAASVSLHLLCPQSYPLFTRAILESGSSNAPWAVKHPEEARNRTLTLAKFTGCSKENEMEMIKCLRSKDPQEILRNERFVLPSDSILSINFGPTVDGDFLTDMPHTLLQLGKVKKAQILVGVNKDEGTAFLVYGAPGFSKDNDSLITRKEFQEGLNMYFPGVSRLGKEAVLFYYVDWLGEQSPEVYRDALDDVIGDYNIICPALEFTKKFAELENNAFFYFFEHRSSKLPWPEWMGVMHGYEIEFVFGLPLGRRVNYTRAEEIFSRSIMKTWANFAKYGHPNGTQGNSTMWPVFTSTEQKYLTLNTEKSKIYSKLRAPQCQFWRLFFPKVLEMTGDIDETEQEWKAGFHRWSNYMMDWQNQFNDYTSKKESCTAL

Molecule `CC(c1nc2ccccc2s1)N(C)C(=O)CN1CCCC1c1ccc2c(c1)OCCCO2` (centres undefined) showed a negative logarithm of the IC50 (pIC50) against Cholinesterase [1] of 5.87. In data set [2], the Activity amounted to 94%. The inhibition (in data set [3]; on Cholinesterase [4]) was more than 50% throughout.
For `COCCN(C[C@@H]1CCCN(C2Cc3ccccc3C2)C1)C(=O)c1ccc2ccccc2c1`, the pIC50 at Acetylcholinesterase was 3.99; on Cholinesterase [1] it was 7.89. In addition, the pKi at Cholinesterase [5] was 8.57.
With `CCn1nc(C(=O)N2CCCC2)c2c1CCC(NCCc1nc(-c3ccccc3)cs1)C2` (centres undefined), the IC50 entry on Acetylcholinesterase was “Not Active”. The molecule also showed a pIC50 against Cholinesterase [1] of 5.67. Besides, the inhibition (in [3]; at Cholinesterase [4]) was more than 50% throughout.
`COCCN(CC1CCCN(C2Cc3ccccc3C2)C1)C(=O)c1ccc2ccccc2c1` (racemic): the Activity result in data set [6] was “Non-toxic”; in the data set with SH-SY5Y [7], “Dose-dependent effect”; with SH-SY5Y [8], “Dose-dependent effect”. For the same molecule, the inhibition (in [3]; on Cholinesterase [4]) was more than 50% throughout.
For the molecule `COCCN(C[C@H]1CCCN(C2Cc3ccccc3C2)C1)C(=O)c1ccc2ccccc2c1`, the pIC50 at Acetylcholinesterase was 3.96; against Cholinesterase [1], 6.78. Moreover, the pKi on Cholinesterase [5] was 7.57.

For the origin of these results see ChEMBL document CHEMBL3352549, “Discovery, biological evaluation, and crystal structure of a novel nanomolar selective butyrylcholinesterase inhibitor” (J Med Chem, 2014).
